Converted amounts (≈) assume the structure as drawn.
Columns and labels:
Format in all cases: cell-based
[1] = test system: other genera tested (other fungi strains); test: Agar Disk Diffusion Assay, other genera
Protocol: The antifungal activity of pomegranate compounds was evaluated against 19 clinically isolated fungal strains, including nine belonging to Candida albicans species, two belonging to Aspergillus genus, one belonging to Cryptococcus genus, and one Saccharomyces cerevisiae. The C. albicans strains were isolated on CHROMID agar, Aspergillus and Cryptococcus genus were isolated on SDA-CAF and one Saccharomyces cerevisiae on SDA. All the isolates were confirmed by matrix-assisted laser desorption ionization (MALDI) time-of-flight mass spectrometry (TOF/MS). Strains from the American Type Culture Collection (ATCC) were included. All strains were maintained in SDB with 20% (w/v) glycerol at −80 °C until use and sub-cultured in SDA before each test.
The preliminary determination of the antifungal activity of the target compounds (punicalagin, punicalin, ellagic acid, and gallic acid) from pomegranate was carried out by means of the agar disk diffusion assay, according to the standard procedure of the Clinical and Laboratory Standards Institute, with slight modifications. Plates containing SDA were uniformly spread with 100 μL of 10^3 conidia/mL of each strain suspension. […] Disks containing fluconazole (25 μg), amphotericin B (25 μg) and DMSO (20 μL) were used as the positive and the negative control, respectively. The antifungal activity of pomegranate compounds was evaluated by measuring the diameter of the clear inhibition zone formed right around the disks after 48 h incubation at 30 ± 1 °C. The experiment was carried out in triplicate.

[2] = test system: Candida albicans 40; test: MIC, broth microdilution (human pathogens); conditions: Candida albicans 40; SDB, 30 °C, 48 h; read-out: Minimum inhibitory concentration (MIC)
[3] = test system: Candida albicans 2; test: MIC, broth microdilution (human pathogens); conditions: Candida albicans 2; SDB, 30 °C, 48 h; read-out: Minimum inhibitory concentration (MIC)
[4] = test system: Candida parapsilosis 7; test: MIC, broth microdilution (human pathogens); conditions: Lodderomyces parapsilosis; Candida parapsilosis 7; SDB, 30 °C, 48 h; read-out: Minimum inhibitory concentration (MIC)
[5] = test system: Candida albicans 1; test: MIC, broth microdilution (human pathogens); conditions: Candida albicans 1; SDB, 30 °C, 48 h; read-out: Minimum inhibitory concentration (MIC)
[6] = test system: Candida albicans SC 5314; test: Time-kill curves; conditions: C. albicans SC 5314; compound at its MIC value; 0–96 h

Structure (SMILES)	share of other fungi strains with inhibition zone from 11 to 20 mm ([1]; 100 µg) [%]	MIC [2] [µM]	MIC [3] [µM]	MIC [4] [µM]	MIC [5] [µM]	share of other strains with growth inhibition from 21 to 30 mm ([1]; 62.5 µg) [%]	time-kill curve (susceptibility time-course) [6]
O=C1OC[C@H]2OC(O)[C@H](O)[C@@H](O)[C@@H]2OC(=O)c2cc(O)c(O)c(O)c2-c2c(O)c(O)c3oc(=O)c4c(c(O)c(O)c5oc(=O)c2c3c54)-c2c1cc(O)c(O)c2O (mixture of isomers) [Punicalin, punicalin]	63	127	3.8	3.8	3.8		
O=c1oc2c(O)c(O)cc3c(=O)oc4c(O)c(O)cc1c4c23 [Ellagic Acid, ellagic acid]		331 (≈ 100 µg/mL)	2.5 (≈ 0.755 µg/mL)	331 (≈ 100 µg/mL)	5 (≈ 1.51 µg/mL)	100	better antifungal activity against the reference C. albicans strain after 72 h of exposure

— publication PMC8073005, “Antifungal Activity and DNA Topoisomerase Inhibition of Hydrolysable Tannins from Punica granatum L” (International Journal of Molecular Sciences, 2021)
